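Assay format: 96-well plates, 48-hour exposure. At the TGI there is no net growth.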
Legend:
Assay in all cases: NCI-60 cell line screen, 48 h
786-0 renal = test system: 786-0 renal
A549 NSCLC = test system: A549 NSCLC
ACHN renal = test system: ACHN renal
BT-549 breast = test system: BT-549 breast
CAKI-1 renal = test system: CAKI-1 renal
CCRF-CEM leukemia = test system: CCRF-CEM leukemia
COLO 205 colon = test system: COLO 205 colon
DU-145 prostate = test system: DU-145 prostate
EKVX NSCLC = test system: EKVX NSCLC
HCC-2998 colon = test system: HCC-2998 colon
HCT-116 colon = test system: HCT-116 colon
HCT-15 colon = test system: HCT-15 colon
HL-60(TB) leukemia = test system: HL-60(TB) leukemia
HOP-92 NSCLC = test system: HOP-92 NSCLC
HS 578T breast = test system: HS 578T breast
IGROV1 ovarian = test system: IGROV1 ovarian
K-562 leukemia = test system: K-562 leukemia
KM12 colon = test system: KM12 colon
LOX IMVI melanoma = test system: LOX IMVI melanoma
M14 melanoma = test system: M14 melanoma
MALME-3M melanoma = test system: MALME-3M melanoma
MCF7 breast = test system: MCF7 breast
MDA-MB-231 breast = test system: MDA-MB-231 breast
MDA-MB-435 = test system: MDA-MB-435
MDA-N = test system: MDA-N
MOLT-4 leukemia = test system: MOLT-4 leukemia
NCI-H226 lung = test system: NCI-H226 lung
NCI-H460 lung = test system: NCI-H460 lung
NCI-H522 lung = test system: NCI-H522 lung
NCI/ADR-RES ovarian = test system: NCI/ADR-RES ovarian
OVCAR-3 ovarian = test system: OVCAR-3 ovarian
OVCAR-4 ovarian = test system: OVCAR-4 ovarian
OVCAR-5 ovarian = test system: OVCAR-5 ovarian
OVCAR-8 ovarian = test system: OVCAR-8 ovarian
PC-3 prostate = test system: PC-3 prostate
RPMI-8226 leukemia = test system: RPMI-8226 leukemia
RXF 393 renal = test system: RXF 393 renal
SF-268 CNS = test system: SF-268 CNS
SF-295 CNS = test system: SF-295 CNS
SF-539 CNS = test system: SF-539 CNS
SK-MEL-2 melanoma = test system: SK-MEL-2 melanoma
SK-MEL-28 melanoma = test system: SK-MEL-28 melanoma
SK-MEL-5 melanoma = test system: SK-MEL-5 melanoma
SN12C renal = test system: SN12C renal
SNB-19 CNS = test system: SNB-19 CNS
SNB-75 CNS = test system: SNB-75 CNS
SR leukemia = test system: SR leukemia
SW-620 colon = test system: SW-620 colon
T-47D breast = test system: T-47D breast
TK-10 renal = test system: TK-10 renal
U251 CNS = test system: U251 CNS
UACC-257 melanoma = test system: UACC-257 melanoma
UACC-62 melanoma = test system: UACC-62 melanoma
UO-31 renal = test system: UO-31 renal
A498 renal = test system: A498 renal
HOP-62 NSCLC = test system: HOP-62 NSCLC
HT29 colon = test system: HT29 colon
NCI-H23 lung = test system: NCI-H23 lung
SK-OV-3 ovarian = test system: SK-OV-3 ovarian

Work on Cc1ccc2c(c1C)CC1(Cc3ccc(C)c(C)c3C1=O)C2=O (stereo unspecified) yielded a TGI (786-0 renal) of over 100 µM, a TGI (A549 NSCLC) of over 100 µM and a TGI (ACHN renal) of over 100 µM. It also gave a TGI (BT-549 breast) of over 100 µM, a TGI (CAKI-1 renal) of over 100 µM and a TGI (CCRF-CEM leukemia) of over 100 µM. The TGI (COLO 205 colon) was over 100 µM, the TGI (DU-145 prostate) was over 100 µM and the TGI (EKVX NSCLC) was over 100 µM. For the same molecule, the TGI (HCC-2998 colon) was over 100 µM, the TGI (HCT-116 colon) was over 100 µM and the TGI (HCT-15 colon) was over 100 µM. For the same molecule, the TGI (HL-60(TB) leukemia) was over 100 µM, the TGI (HOP-92 NSCLC) was 87 µM and the TGI (HS 578T breast) was over 100 µM. The TGI (IGROV1 ovarian) was over 100 µM, the TGI (K-562 leukemia) was over 100 µM and the TGI (KM12 colon) was over 100 µM. The TGI (LOX IMVI melanoma) was over 100 µM, the TGI (M14 melanoma) was over 100 µM and the TGI (MALME-3M melanoma) was over 100 µM. It also gave a TGI (MCF7 breast) of over 100 µM, a TGI (MDA-MB-231 breast) of over 100 µM and a TGI (MDA-MB-435) of over 100 µM. The TGI (MDA-N) was over 100 µM, the TGI (MOLT-4 leukemia) was over 100 µM and the TGI (NCI-H226 lung) was over 100 µM. For the same molecule, the TGI (NCI-H460 lung) was over 100 µM, the TGI (NCI-H522 lung) was over 100 µM and the TGI (NCI/ADR-RES ovarian) was over 100 µM. The TGI (OVCAR-3 ovarian) was over 100 µM, the TGI (OVCAR-4 ovarian) was over 100 µM and the TGI (OVCAR-5 ovarian) was over 100 µM. For the same molecule, the TGI (OVCAR-8 ovarian) was over 100 µM, the TGI (PC-3 prostate) was over 100 µM and the TGI (RPMI-8226 leukemia) was over 100 µM. It also gave a TGI (RXF 393 renal) of 54.3 µM, a TGI (SF-268 CNS) of over 100 µM and a TGI (SF-295 CNS) of over 100 µM. For the same molecule, the TGI (SF-539 CNS) was over 100 µM, the TGI (SK-MEL-2 melanoma) was over 100 µM and the TGI (SK-MEL-28 melanoma) was over 100 µM. The TGI (SK-MEL-5 melanoma) was over 100 µM, the TGI (SN12C renal) was over 100 µM and the TGI (SNB-19 CNS) was over 100 µM. It also gave a TGI (SNB-75 CNS) of over 100 µM, a TGI (SR leukemia) of over 100 µM and a TGI (SW-620 colon) of over 100 µM. It also gave a TGI (T-47D breast) of over 100 µM, a TGI (TK-10 renal) of over 100 µM and a TGI (U251 CNS) of over 100 µM. The TGI (UACC-257 melanoma) was over 100 µM, the TGI (UACC-62 melanoma) was over 100 µM and the TGI (UO-31 renal) was over 100 µM.

With C=CCN(c1cc(O)c2c(c(C)cn2S(=O)(=O)c2ccccc2)c1[N+](=O)[O-])S(C)(=O)=O the TGI (786-0 renal) was over 100 µM, the TGI (A498 renal) was over 100 µM and the TGI (A549 NSCLC) was over 100 µM. For the same molecule, the TGI (ACHN renal) was over 100 µM, the TGI (BT-549 breast) was over 100 µM and the TGI (CAKI-1 renal) was over 100 µM. The TGI (CCRF-CEM leukemia) was over 100 µM, the TGI (COLO 205 colon) was over 100 µM and the TGI (DU-145 prostate) was over 100 µM. For the same molecule, the TGI (EKVX NSCLC) was over 100 µM, the TGI (HCC-2998 colon) was over 100 µM and the TGI (HCT-116 colon) was over 100 µM. It also gave a TGI (HCT-15 colon) of over 100 µM, a TGI (HL-60(TB) leukemia) of over 100 µM and a TGI (HOP-62 NSCLC) of over 100 µM. It also gave a TGI (HOP-92 NSCLC) of over 100 µM, a TGI (HS 578T breast) of over 100 µM and a TGI (HT29 colon) of over 100 µM. It also gave a TGI (IGROV1 ovarian) of over 100 µM, a TGI (K-562 leukemia) of over 100 µM and a TGI (KM12 colon) of over 100 µM. It also gave a TGI (LOX IMVI melanoma) of over 100 µM, a TGI (M14 melanoma) of over 100 µM and a TGI (MALME-3M melanoma) of over 100 µM. The TGI (MCF7 breast) was over 100 µM, the TGI (MDA-MB-231 breast) was over 100 µM and the TGI (MDA-MB-435) was 74.7 µM. For the same molecule, the TGI (MDA-N) was over 100 µM, the TGI (MOLT-4 leukemia) was over 100 µM and the TGI (NCI-H226 lung) was over 100 µM. The TGI (NCI-H23 lung) was over 100 µM, the TGI (NCI-H460 lung) was over 100 µM and the TGI (NCI-H522 lung) was over 100 µM. It also gave a TGI (NCI/ADR-RES ovarian) of over 100 µM, a TGI (OVCAR-3 ovarian) of over 100 µM and a TGI (OVCAR-4 ovarian) of over 100 µM. It also gave a TGI (OVCAR-5 ovarian) of over 100 µM, a TGI (OVCAR-8 ovarian) of over 100 µM and a TGI (PC-3 prostate) of over 100 µM. The TGI (RPMI-8226 leukemia) was over 100 µM, the TGI (RXF 393 renal) was over 100 µM and the TGI (SF-268 CNS) was over 100 µM. For the same molecule, the TGI (SF-295 CNS) was over 100 µM, the TGI (SF-539 CNS) was over 100 µM and the TGI (SK-MEL-2 melanoma) was over 100 µM. For the same molecule, the TGI (SK-MEL-28 melanoma) was over 100 µM, the TGI (SK-MEL-5 melanoma) was over 100 µM and the TGI (SK-OV-3 ovarian) was over 100 µM. For the same molecule, the TGI (SN12C renal) was over 100 µM, the TGI (SNB-19 CNS) was over 100 µM and the TGI (SNB-75 CNS) was over 100 µM. For the same molecule, the TGI (SW-620 colon) was over 100 µM, the TGI (T-47D breast) was over 100 µM and the TGI (TK-10 renal) was over 100 µM. It also gave a TGI (U251 CNS) of over 100 µM, a TGI (UACC-257 melanoma) of over 100 µM and a TGI (UO-31 renal) of over 100 µM.

From PubChem BioAssay (NCI)
